#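 At the GI50, growth is halved. At the TGI there is no net growth.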
# Columns and labels:
# Assay in all cases: NCI tumour cell line growth inhibition, 384-well format
# [1] = system: NCI-H322M lung
# [2] = system: SF-295 CNS
# [3] = system: DU-145 prostate
# [4] = system: OVCAR-5 ovarian
# [5] = system: IGROV1 ovarian
# [6] = system: UO-31 renal
# [7] = system: HCT-116 colon
# [8] = system: PC-3 prostate
# [9] = system: HL-60(TB) leukemia
# [10] = system: NCI-H23 lung
# [11] = system: TK-10 renal
# [12] = system: NCI/ADR-RES ovarian
# [13] = system: SF-539 CNS
# [14] = system: MDA-MB-468 breast
# [15] = system: MOLT-4 leukemia
# [16] = system: SNB-19 CNS
# [17] = system: OVCAR-8 ovarian
# [18] = system: SN12C renal
# [19] = system: T-47D breast
# [20] = system: CCRF-CEM leukemia
# [21] = system: KM12 colon
# [22] = system: ACHN renal
# [23] = system: MDA-MB-231 breast
# [24] = system: MDA-MB-435 melanoma
# [25] = system: SNB-75 CNS
# [26] = system: U251 glioblastoma
# [27] = system: SF-268 CNS
# [28] = system: 786-0 renal
# [29] = system: CAKI-1 renal
# [30] = system: BT-549 breast
# [31] = system: RXF 393 renal
# [32] = system: A498 renal
# [33] = system: MALME-3M melanoma
# [34] = system: M14 melanoma
# [35] = system: HS 578T breast
# [36] = system: LOX IMVI melanoma
# [37] = system: OVCAR-4 ovarian
# [38] = system: SK-OV-3 ovarian
# [39] = system: HOP-92 NSCLC
# [40] = system: K-562 leukemia
# [41] = system: HCT-15 colon
# [42] = system: SW-620 colon
# [43] = system: SK-MEL-28 melanoma
# [44] = system: HT29 colon
# [45] = system: A549 NSCLC
# [46] = system: UACC-62 melanoma
smiles,measurement,setting,value
O=c1[nH]c(=O)n(C2CC(O)C(CO)O2)cc1F (configuration not stated),GI50,[1],345 nM
same,GI50,[2],13.2 nM
same,TGI,[2],53.2 nM
same,GI50,[3],35.9 nM
same,GI50,[4],321 nM
same,GI50,[5],559 nM
same,GI50,[6],26.1 nM
same,GI50,[7],52.9 nM
same,TGI,[7],40600 nM
same,GI50,[8],90.4 nM
same,GI50,[9],25.5 nM
same,TGI,[9],115 nM
same,GI50,[10],112 nM
same,GI50,[11],721 nM
same,GI50,[12],214 nM
same,GI50,[13],11.2 nM
same,TGI,[13],102 nM
same,GI50,[14],13.7 nM
same,TGI,[14],53.7 nM
same,TGI,[15],15.7 nM
same,GI50,[16],39.4 nM
same,GI50,[17],79.8 nM
same,GI50,[18],28.9 nM
same,TGI,[18],238 nM
same,GI50,[19],11500 nM
same,GI50,[20],23.8 nM
same,TGI,[20],97.2 nM
same,GI50,[21],844 nM
same,GI50,[22],30.2 nM
same,GI50,[23],444 nM
same,GI50,[24],1380 nM
same,GI50,[25],16.9 nM
same,GI50,[26],112 nM
same,GI50,[27],13 nM
same,GI50,[28],69.9 nM
same,GI50,[29],69.5 nM
same,TGI,[30],2780 nM
same,GI50,[31],2920 nM
same,TGI,[31],25900 nM
same,TGI,[32],59500 nM
same,GI50,[33],3990 nM
same,GI50,[34],104 nM
same,GI50,[35],28.2 nM
same,TGI,[35],171 nM
same,GI50,[36],35.4 nM
same,GI50,[37],27400 nM
same,GI50,[38],112 nM
same,GI50,[39],2480 nM
same,GI50,[40],351 nM
same,TGI,[40],9400 nM
same,GI50,[41],55.1 nM
same,GI50,[42],28.7 nM
same,GI50,[43],101 nM
same,TGI,[43],3610 nM
same,GI50,[44],53.9 nM
same,GI50,[45],31.8 nM
same,GI50,[46],177 nM

# — PubChem BioAssay (NCI)
